Data as given in patent US11267802B2 (BEBETTER MED INC., priority 2015, dated 2022).

Experiments:
[1] = Pharmacokinetics in rats after oral administration; format: in vivo, SD rats
Experimental: Male SD rats weighing 250-300 g, or male beagles weighing 9-10 kg, were fasted overnight before the experiment. The object compounds were dissolved in 30% sulfobutylated beta-cyclodextrin (SBE-β-CD), and orally administrated to the rats at a dose of 20 mg/kg or to the beagles at a dose of 5 mg/kg. Blood samples were taken at 15 minutes, 30 minutes, 1 hour, 2 hours, 3 hours, 4 hours, 6 hours, 8 hours and 24 hours after administration. 0.3 ml of blood was collected at every time point, placed in a centrifuge tube containing K2-EDTA (ethylenediamine tetraacetic acid dipotassium) and centrifuged (2,000 g, 10 minutes, 4° C.) to collect plasma, which was then stored in an ultra cold storage freezer at −80° C. 50 μL of plasma sample was mixed with 5 μL of internal standard (IS), and then extracted with ethyl acetate. After vacuum drying, the residue was re-dissolved in acetonitrile. The sample was filtered and injected into LC-MS/MS for analysis.

EGFR T790M/L858R = biological target: T1, EGFR T790M/L858R (Homo sapiens, UniProt P00533, L858R/T790M); assay: Mutant EGFR T790M/L858R activity inhibition assay (Caliper mobility shift); format: biochemical; settings: read-out: enzyme activity inhibition (IC50) EGFR T790M/L858R
T1 construct: purchased Invitrogen PR8911A
T1 sequence (P00533 25-1210 T790M/L858R): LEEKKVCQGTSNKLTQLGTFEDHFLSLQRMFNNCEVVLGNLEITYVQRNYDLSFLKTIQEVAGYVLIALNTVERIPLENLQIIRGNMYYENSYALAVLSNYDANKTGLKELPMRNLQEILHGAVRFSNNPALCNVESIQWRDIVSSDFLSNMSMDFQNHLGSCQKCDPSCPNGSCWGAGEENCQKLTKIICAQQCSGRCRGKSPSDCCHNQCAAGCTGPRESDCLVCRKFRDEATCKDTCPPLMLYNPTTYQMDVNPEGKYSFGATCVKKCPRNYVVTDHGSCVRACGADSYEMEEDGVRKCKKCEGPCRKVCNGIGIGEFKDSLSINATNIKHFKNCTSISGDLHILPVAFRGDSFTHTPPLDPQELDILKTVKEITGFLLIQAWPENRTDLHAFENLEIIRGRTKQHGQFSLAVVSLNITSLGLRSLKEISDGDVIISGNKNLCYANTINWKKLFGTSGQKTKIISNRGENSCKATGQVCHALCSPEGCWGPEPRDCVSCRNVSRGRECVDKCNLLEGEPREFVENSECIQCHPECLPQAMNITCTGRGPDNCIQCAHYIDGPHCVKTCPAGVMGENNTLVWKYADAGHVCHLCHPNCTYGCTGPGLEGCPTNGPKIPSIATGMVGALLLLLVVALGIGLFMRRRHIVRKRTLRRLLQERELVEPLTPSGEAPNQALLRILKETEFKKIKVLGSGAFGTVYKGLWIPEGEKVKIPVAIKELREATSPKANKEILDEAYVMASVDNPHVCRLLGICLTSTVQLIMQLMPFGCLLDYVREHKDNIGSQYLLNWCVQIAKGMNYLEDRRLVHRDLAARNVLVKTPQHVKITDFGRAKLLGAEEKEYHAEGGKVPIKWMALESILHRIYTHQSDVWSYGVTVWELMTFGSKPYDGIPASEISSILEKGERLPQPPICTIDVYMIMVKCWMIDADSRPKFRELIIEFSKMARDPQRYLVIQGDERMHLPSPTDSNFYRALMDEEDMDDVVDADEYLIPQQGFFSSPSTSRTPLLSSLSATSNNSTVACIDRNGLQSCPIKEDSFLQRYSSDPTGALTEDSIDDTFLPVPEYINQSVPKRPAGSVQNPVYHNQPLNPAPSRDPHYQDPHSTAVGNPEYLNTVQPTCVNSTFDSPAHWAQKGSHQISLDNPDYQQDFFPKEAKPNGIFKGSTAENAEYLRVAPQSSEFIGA
In short: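 Compound added in 10% DMSO at 5-fold final concentration; substrate conversion read by Caliper mobility shift. Inhibition = (max−conversion)/(max−min)×100, with max from DMSO no-compound wells and min from no-enzyme wells; IC50 from fitted concentration–response curve.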

H1975 xenograft tumor = assay: Potency assay of tumor model, dose-effect relationship, 22 consecutive days; format: in vivo, Balb/C nude mice; settings: for Tumor inhibition T/C value (%) / Weight change (%): po, qd
Experimental: (§1) Balb/C nude mice were purchased from Beijing Vital River Laboratory Animal Technology Co., Ltd., and housed in SPF animal room. The human non-small-cell lung cancer cell line H1975 in a culture dish was collected by trypsin-EDTA (0.25% trypsin, 1 mM EDTA), and then washed with a serum-free PBS solution. Lastly, the cells were implanted after diluted in a serum-free medium. Only the single cell suspension with a survival rate over 90% (Trypan blue rejection) can be used for injection. 5 million cells suspended in a 0.1 ml serum-free culture were injected into the front right flanking subcutaneous region of each mouse by using a 1 ml syringe and a 25G syringe needle, and the blood vessel was carefully avoided. The tumor size was measured in about one week after implantation. A caliper rule was used to measure the tumor size. The tumor volume was calculated by the following formula: tumor volume=(length×width^2)/2.
Further assay was performed to assess the dose-effect relationship of the inhibition of H1975 transplantation tumor growth by the compounds 51 and 91. […] These compounds were dissolved in 30% sulfobutylated beta-cyclodextrin (SBE-β-CD) and 1N HCl (pH 3-4), respectively. […]

H1975 = assay: Inhibition assay on tumor cell proliferation (CellTiter-Glo), H1975; format: cell-based, Human; settings: Homo sapiens, NCI-H1975; H1975 (L858R and T790M EGFR double mutation), 72 hours, 10% bovine serum
[2] = Pharmacokinetic experiments of tumor model (plasma and tumor tissue, H1975 xenograft mice); format: in vivo, Balb/C nude mice; settings: oral 30 mg/kg; for AUC(0-inf) / Cmax / Tmax / half-life / AUC(0-t): Balb/C nude, mouse; for AUC(0-t): read-out: AUC0-24
Experimental: as §1
When the volume of H1975 xenograft tumor reached a volume of about 400 mm^3, the animals were divided into 6 oral administration groups, that is, excipient control group (0 hour) and groups of 30 minutes, 2 hours, 4 hours, 8 hours, and 24 hours after administration (3 animals at each time point). The compound 91 was dissolved in 30% sulfobutylated beta-cyclodextrin (SBE-β-CD) and 1 N HCl (pH 3-4) at a concentration of 3 mg/ml, and gavage administration at a dose of 30 mg/kg was performed. The mice were euthanized by CO2 at the above time points. Then their blood was collected from the heart and placed in a centrifuge tube containing K2-EDTA, and subjected to plasma collection by centrifugation. The tumor tissue was collected, cooled in liquid nitrogen immediately, and then stored under −80° C. until pharmacokinetic analysis.
Pharmacokinetic analysis was performed as below: the plasma sample and tumor tissue homogenate sample were mixed with 5 microliter of internal standard (IS), and then extracted with ethyl acetate. After vacuum drying, the residue was re-dissolved in acetonitrile. The sample was filtered and injected into LC-MS/MS for analysis.

[3] = male, SD, rat, 20 mg/kg, plasma

For `C=CC(=O)Nc1cc(Nc2nccc(-n3c(=O)n(C(C)C)c4cc(F)ccc43)n2)c(OC)cc1N(C)CCN(C)C` [Compound 91, N-(2-((2-(dimethylamino)ethyl)(methyl)amino)-5-(4-(5-fluoro-3-isopropyl-2-oxo-2,3-dihydro-1H-benzo[d]imidazol-1-yl)pyrimidin-2-ylamino)-4-methoxyphenyl)acrylamide], the “absorption / blood exposure after oral administration (in words)” value [1] was “well absorbed, with high blood exposure”, the AUC(0-inf) [1, 3] was 1350 ng·h/mL and the Cmax [1, 3] was 292 ng/mL. The Tmax [1, 3] was 1 h, the half-life [1, 3] was 3 h and the AUC(0-t) ([1]; male, SD, rat, 20 mg/kg, plasma, read-out: AUC0-24) was 1340 ng·h/mL. For the same compound, the IC50 (EGFR T790M/L858R) was < 1 nM, the “Tumor inhibition T/C value (%)” value (H1975 xenograft tumor; 10 mg/kg, 22 consecutive days) was −73% and the “Weight change (%)” value (H1975 xenograft tumor; 10 mg/kg, 22 consecutive days) was 1.6%. For the same compound, the “Tumor inhibition T/C value (%)” value (H1975 xenograft tumor; 20 mg/kg, 22 consecutive days) was −100%, the “Weight change (%)” value (H1975 xenograft tumor; 20 mg/kg, 22 consecutive days) was 1.2% and the “Tumor inhibition T/C value (%)” value (H1975 xenograft tumor; 40 mg/kg, 22 consecutive days) was −100%. The “Weight change (%)” value (H1975 xenograft tumor; 40 mg/kg, 22 consecutive days) was −3.5%, the “tumor outcome (in words)” value (H1975 xenograft tumor; high dose (40 mg/kg), 22 consecutive days) was “the tumor disappeared completely” and the “dose dependence of inhibition of H1975 xenograft tumor growth (in words)” value (H1975 xenograft tumor; oral, 10, 20 and 40 mg/kg) was “dose dependently inhibited”. The IC50 (H1975) was < 10 nM, the melting point was 225 to 227 °C and the AUC(0-inf) ([2]; plasma) was 5130 ng·h/mL. It also gave a Cmax ([2]; plasma) of 1720 ng/mL, a Tmax ([2]; plasma) of 0.5 h and a half-life ([2]; plasma) of 3.1 h. It also gave an AUC(0-t) ([2]; plasma) of 5100 ng·h/mL, an AUC(0-inf) ([2]; tumor tissue) of 6840 ng·h/mL and a Cmax ([2]; tumor tissue) of 868 ng/mL. For the same compound, the Tmax ([2]; tumor tissue) was 4 h, the half-life ([2]; tumor tissue) was 5.5 h and the AUC(0-t) ([2]; tumor tissue) was 6430 ng·h/mL. The “absorption after oral administration (in words)” value [2] was “absorbed quickly”.
